Assay results published in patent publication US20010010827A1, “Method and composition for treatment of headache using magnesium” (priority 1991, published 2001).
Read-outs that look alike come from different tables or passages of the source.

Legend:
[1] = system: headache (migraine, cluster, chronic migrainous, chronic tension-type)
Source text: Forty consecutive patients who presented to the headache clinic with a moderate or severe headache of any type (4 or higher on a verbal 1 to 10 scale) were enrolled in this study after an informed consent. […] Patients with renal, cardiac, diabetic or other medical problems were excluded. The international Headache Society classification was used to diagnose all patients.^23 Age-matched healthy volunteers served as control subjects.
Immediately prior to the magnesium infusion a blood sample of serum IMg^2+, total magnesium (TMg) and ionized calcium (ICa^2+) was drawn under anaerobic conditions. The laboratory personnel (B.T.A., B.M.A.) were blinded as the blood samples were not accompanied by any clinical information, while the clinician administering the infusion (A.M.) received test results several days after the completion of the evaluation. Serum levels of IMg^2+ and ICa^2+ were measured using ion-selective electrodes with a NOVA Biomedical Stat Profile 8 Analyzer.^16-18 The lower limit of normal for IMg^2+ levels in this study was 0.55/mmol/L. The normal range for the ICa^2+/IMg^2+ ratio is 1.92-2.08.
Headache intensity was measured on a verbal 1 to 10 scale prior to and 15 minutes after the infusion. A greater than 50% reduction of pain intensity was considered a positive response. The recurrence or worsening of a headache within the following 24 was determined in a telephone interview on the following day. The clinical response to the IMg^2+ levels was correlated. The correlation was considered to be positive if patients with a normal IMg^2+ level (≧0.55 mmol/L) had no relief or less than 24 hrs of relief. In patients with low IMg^2+ levels (<0.55 mmol/L), a correlation was considered positive only if relief lasted for more than 24 hrs.
Mean values±S.E.M. were calculated and compared for statistical significance by a Student's t-test, ANOVA with Scheffe's contrast test, analysis of co-variance for age, and linear regression analysis, where appropriate. Chi-Square tests were also utilized where appropriate. A p-value of less than 0.05 was considered significant.

[2] = system: chronic migrainous headache; experiment: Therapies tried in patient #27 for two months before the MgSO4 infusion; type: in vivo, human; conditions: acetaminophen 1000 mg or ibuprofen 400 mg four times/day, nabumetone 1000 mg/day for two weeks, cyproheptadine 4 mg nightly for two weeks
Protocol: Long-term results in patients with intermittent migraine attacks is difficult to gauge because of the variable frequency of migraines in these patients. Responses in patients with chronic headaches also varied. […] Various therapists (i.e., acetaminophen—1000 mg or ibuprofen—400 mg-four times/day; nabumetone— 1000 mg/day for two weeks; cyproheptadine—4 mg nightly for two weeks; physical exercise) were tried in this patient for two months prior to the infusion with no relief.

[3] = Oral glucose loading: ionized, total and intracellular free magnesium; type: in vivo, human; conditions: oral glucose 100 gm
Protocol: Ionized magnesium, serum total magnesium, and plasma renin activity (PRA) in fasting normotensive (NT) (n=20), essential hypertensive (n=28) subjects was monitored before, and 60, 90, 120 and 180 minutes after oral glucose loading (100 gm). Results were compared to intracellular free magnesium values obtained at the same time intervals as measured using ^31P-NMR spectroscopy.

[4] = of the 40 patients given IV MgSO4

Question: Which results are given for `O=S(=O)([O-])[O-].[Mg+2]` [MgSO4, magnesium sulfate]?
Answer: other side effects ([1]; 40 patients, IV infusion): No other side effects were noted; side effect during the IV infusion ([1]; almost all patients): flushed feeling; duration of relief ([1]; cluster headache, repeat infusions of 1 to 3 gram each): approximately 48 hours; Return Within 24 hr ([1]; individual chronic tension headache patients, recurrence or worsening of headache within 24 hr): N; Response ([1]; individual cluster headache patients, 1 g MgSO4 IV over 5 min, positive = greater than 50% reduction of pain intensity 15 min after infusion): Y; onset of improvement of headache ([1]; most patients): began to improve before the end of infusion; duration of relief ([1]; most patients whose headache returned within 24 hours): 1 to 2 h; number of patients with persistent relief of headache beyond 24 hours ([1]; of the 32 initial responders): 18 patients; number of patients with at least a 50% initial reduction of pain intensity [1, 4]: 32 patients; patients with at least a 50% initial reduction of pain intensity [1, 4]: 80%; duration of relief ([1]; patient #17, chronic cluster headache, after the initial and each of three subsequent infusions): 28 h; persistence of response ([1]; patient #27 (youngest patient), single infusion): positive response to Mg that persists five months later; duration of relief ([1]; patient #28, chronic migrainous headache): 24 h; outcome of cluster episode ([1]; patients #18 and #19, episodic clusters, single infusion): aborted the entire cluster episode; time to return of headaches ([1]; patients #24 and #25, episodic clusters): ≤ 24 h; duration of relief ([1]; the other four cluster headache patients): two-seven; patients with complete elimination of pain ([1]; within 5 min of infusion): 80%

Question: Which relief of headache [2] does the source give for `CC(=O)Nc1ccc(O)cc1` [acetaminophen] here?
Answer: no relief

Question: With `O=C[C@H](O)[C@@H](O)[C@H](O)[C@H](O)CO` [glucose] as the compound, how does the “total magnesium values after glucose loading” value [3] read?
Answer: did not differ

Question: And the “ionized Mg2+ levels after oral glucose loading” value ([3]; elevated from 0.60±0.02, ion selective electrode, p<0.01)?
Answer: 0.64 ± 0.02 mM

Question: What about the “intracellular Mg after oral glucose loading” value ([3]; lowered from 219± 12, 31P-NMR, p<0.01) of the same compound?
Answer: 193 ± 13 µM

Question: For `CC(C)Cc1ccc(C(C)C(=O)O)cc1` (centres unmarked) [ibuprofen], which relief of headache [2] is on record?
Answer: no relief

Question: For `COc1ccc2cc(CCC(C)=O)ccc2c1` [nabumetone], which relief of headache [2] is on record?
Answer: no relief
